This is an account of results in patent publication US4207326A, “Antimicrobial quaternary pyrazole derivatives” (Cilag-Chemie A.G., priority 1979, dated 1980).

One assay relates to S. aureus. The assay is described as follows: Antibacterial activity: Minimum Inhibitory Concentration. The note with it: 24 hours; for MIC: Staphylococcus aureus. Type of assay: cell-based, Staphylococcus aureus ATCC 6538. As to the method: (§1) The antimicrobial activity was determined by inoculation of the test microorganism into suitable growth media containing solutions of the compounds at concentrations of 100, 50, 10, 5, 1.0, 0.5 and 0.1 μg/ml. The reference antibiotics used were Gentamicin for the antibacterial tests and Amphotericin B for the antimycotic and antifungal tests. After incubation the antimicrobial activity was recorded as the Minimal Inhibitory Concentration (M.I.C.), i.e., the lowest concentration preventing macroscopically visible growth, for each test compound against each organism.
(§2) An initial solution of each formula (I) compound to be tested in sterile distilled water was prepared at a concentration of 1000 μg/ml. With appropriate dilutions using sterile distilled water, additional solutions were prepared at concentrations of 500, 100, 50, 10, 5 and 1 μg/ml.
(§3) They were cultured and maintained on Tryptone Soy Agar (Oxoid CM 131), with the addition of 10% horse blood for the S. pyogenes.
(§4) To prepare the organisms as inocula for the test, slopes of this medium were streaked with the organisms and incubated at 37° C. for 24 hours. 4.5 Ml volumes of Brian-Heart Infusion Broth (Oxoid CM 225) were then inoculated with a platinum loop from the agar slope cultures and incubated for 24 hours at 37° C. The final inocula were then prepared by adding 0.1 ml aliquots of the Brain-Heart Infusion Broth cultures to 100 ml volumes of sterile physiological saline.
(§5) (a) For the test on each of the bacterial strains and each of the test and reference compounds, a series of 8 tubes containing 4.5 ml volumes of Brain-Heart Infusion Broth (Oxoid CM 225) were prepared. To 7 of these were added 0.5 ml volumes of the final solutions of the test compouns, giving final concentrations in the broths of 100, 50, 10, 5, 1.0, 0.5 and 0.1 μg/ml. To the eighth tube in each series was added 0.5 ml of the solvent used and diluted as for the preparation of the 1000 μg/ml solution of the compound. This tube was used as the growth control. The tubes were inoculated with 0.02 ml aliquots of the inocula prepared in accordance with "(a) Bacteria" above, and incubated at 37° C. for 24 hours. The tubes were then examined for evidence of bacterial growth as shown by turbidity of the medium and the lowest concentration of the test compound which prevented bacterial growth was recorded as the Minimal Inhibitory Concentration. This test procedure was carried out on two separate days.

The next assay deals with S. pyogenes. Described as above. The format is cell-based, Streptococcus pyogenes NCTC 8198. Conditions: 24 hours; for MIC: Streptococcus pyogenes. How it is done:
as §1, §2, §3, §4, §5

The test system of a further assay is P. mirabilis. The assay is described as above. Type of assay: cell-based, Proteus mirabilis NCTC 8559. Conditions: for MIC: Proteus mirabilis, read-out: Minimum Inhibitory Concentration. As to the method:
as §1, §2, §3, §4, §5

In another assay the test system is C. tropicalis. The assay is described as follows: Antimycotic activity: Minimum Inhibitory Concentration. Type of assay: cell-based, Candida tropicalis NCPF 3111. Conditions: pH 5.5, 37° C., 72 hours; for Minimum Inhibitory Concentrations: C. tropicalis; for MIC: Candida tropicalis. How it is done: as §1, §2
The two species, C. albicans and C. tropicalis, were maintained on Sabouraud-Dextrose Agar (Oxoid CM41) and cultures for the preparation of the inoculum were incubated on this agar at 37° C. for 48 hours. 4.5 Ml volumes of citric acid-phosphate buffer pH 5.5 plus Yeast-Nitrogen Base (Difco 0392-15) were then inoculated from the agar cultures and incubated at 37° C. for 48 hours. 0.1 Ml aliquots of these cultures were then added to 100 ml volumes of sterile physiological saline to give the final inocula.
(b) For the tests on each of the C. albicans, C. tropicalis and C. neoformans strains and each of the test and reference compounds, a series of 8 tubes containing 4.5 ml volumes of citric acid-phosphate buffer pH 5.5 plus Yeast-Nitrogen Base (Difco 0392-15) were prepared. To 7 of these were added 0.5 ml volumes of the final solutions of the test compounds, giving final concentrations in the broths of 100, 50, 10, 5, 1.0, 0.5 and 0.1 μg/ml. To the eighth tube in each series was added 0.5 ml of the solvent used and diluted as for the preparation of the 1000 μg/ml solution of the compound. This tube was used as the growth control. The tubes were then inoculated with 0.1 ml aliquots of the inocula prepared as in "(b) Fungi" above. The tubes inoculated with the C. albicans and C. tropicalis were inoculated at 37° C. for 72 hours and the tubes inoculated with the C. neoformans straim were incubated at 30° C. for 72 hours. […] The tubes were then examined for evidence of growth as shown by turbidity of the medium and the lowest concentration of the test compound which prevented fungal growth was recorded as the Minimal Inhibitory Concentration. This test procedure was carried out on two separate days.

Where [1] appears, read: P. mirabilis, Day 1, 37° C., 24 hours.
[2] abbreviates: P. mirabilis, Day 2, 37° C., 24 hours.
The mark [3] stands for this setting: pH 5.5, C. tropicalis, Day 1, read-out: Minimum Inhibitory Concentrations.
Setting [4] is: pH 5.5, C. tropicalis, Day 2, read-out: Minimum Inhibitory Concentrations.

Where two headings read alike, the source gives them in different places.

As to “2,3(5)-dimethyl-1-dodecyl-pyrazolium methosulfate [Example 8-A]”, the “Minimum Inhibitory Concentration” value in the assay with S. aureus (Day 1, 37° C.) is 1 µg/mL; in the assay on S. aureus (Day 2, 37° C.), 0.5 µg/mL; in the assay on S. pyogenes (Day 1, 37° C.), 5 µg/mL; with S. pyogenes (Day 2, 37° C.) it was 5 µg/mL; in the assay on P. mirabilis (setting [1]), 100 µg/mL; in the assay with P. mirabilis (setting [2]) it was 100 µg/mL. Also, the “Minimum Inhibitory Concentrations” value in the assay with C. tropicalis (Day 1) and in the assay on C. tropicalis (Day 2) was 5 µg/mL throughout.

Consider “2,3(5)-dimethyl-1-hexadecyl-pyrazolium methosulfate [Example 9]”, for which the “Minimum Inhibitory Concentration” value in the assay with S. aureus (Day 1, 37° C.) was determined as 0.5 µg/mL; in the assay with S. aureus (Day 2, 37° C.), 0.5 µg/mL; in the assay on S. pyogenes (Day 1, 37° C.) it was 0.5 µg/mL; in the assay on S. pyogenes (Day 2, 37° C.), 0.5 µg/mL; with P. mirabilis (setting [1]), 10 µg/mL; with P. mirabilis (setting [2]) it was 10 µg/mL. The “Minimum Inhibitory Concentrations” value in the assay with C. tropicalis (Day 1) was found to be 5 µg/mL; in the assay with C. tropicalis (Day 2), 1 µg/mL.

Turning to `CCCCCCCCCCCC[n+]1c(C)cc(C)n1Cc1ccc(Cl)cc1Cl.[Br-]` [Example 6-B, 2-(2,4-dichlorobenzyl)-3,5-dimethyl-1-dodecyl-pyrazolium bromide], the MIC against S. aureus (Day 1, 37° C.) was determined as 0.5 µg/mL; with S. aureus (Day 2, 37° C.) it was 0.5 µg/mL; against S. pyogenes (Day 1, 37° C.) it was 0.5 µg/mL; with S. pyogenes (Day 2, 37° C.), 0.5 µg/mL; with P. mirabilis (setting [1]) it was 50 µg/mL; in the assay with P. mirabilis (setting [2]) it was 50 µg/mL. Besides, the MIC with C. tropicalis (setting [3]) and in the assay on C. tropicalis (setting [4]) was 1 µg/mL throughout.

`CCCCCCCCCCCCCCCC[n+]1c(C)cc(C)n1C.Cc1ccc(S(=O)(=O)[O-])cc1` [Example 6-C, 1-hexadecyl-2,3,5-trimethylpyrazolium p-toluene sulfonate]: the MIC against S. aureus (Day 1, 37° C.) is 0.5 µg/mL; in the assay with S. aureus (Day 2, 37° C.), 0.5 µg/mL; in the assay on P. mirabilis, 50 µg/mL; in the assay on C. tropicalis (pH 5.5, read-out: Minimum Inhibitory Concentrations, C. tropicalis, Day 1) it was 5 µg/mL.

As for `C=CCn1c(C)cc(C)[n+]1CCCCCCCCCCCCCCCC.[Br-]` [Example 7, 2-allyl-3,5-dimethyl-1-hexadecyl-pyrazoliumbromide], the MIC against S. aureus (Day 1, 37° C.) came out at 0.5 µg/mL; against S. aureus (Day 2, 37° C.), 0.5 µg/mL; with S. pyogenes (Day 1, 37° C.) it was 0.5 µg/mL; in the assay with S. pyogenes (Day 2, 37° C.) it was 0.5 µg/mL; in the assay on P. mirabilis (setting [1]), 10 µg/mL; with P. mirabilis (setting [2]) it was 50 µg/mL. The MIC in the assay with C. tropicalis (setting [3]) and in the assay on C. tropicalis (setting [4]) was 0.5 µg/mL each time.

As to `CCCCCCCCCCCCn1ccc[n+]1C` [Example 3-E, 1-dodecyl-2-methy-pyrazolium methosulfate], the MIC against S. aureus (Day 1, 37° C.) was determined as 1 µg/mL; against S. aureus (Day 2, 37° C.) it was 1 µg/mL; against S. pyogenes (Day 1, 37° C.) it was 5 µg/mL; against S. pyogenes (Day 2, 37° C.), 5 µg/mL; in the assay with P. mirabilis (setting [1]), 100 µg/mL; in the assay on P. mirabilis (setting [2]), 100 µg/mL. Further, the MIC in the assay on C. tropicalis (setting [3]) worked out at 5 µg/mL; in the assay with C. tropicalis (setting [4]) it was 1 µg/mL.

For `CCCCCCCCCCCCCC[n+]1c(C)cc(C)n1Cc1ccc([N+](=O)[O-])cc1.[Br-]` [Example 6-D, 3,5-dimethyl-2(4-nitrobenzyl)-1-tetradecyl-pyrazolium bromide], the MIC against S. aureus (Day 1, 37° C.) turned out to be 1 µg/mL; in the assay with S. aureus (Day 2, 37° C.) it was 0.5 µg/mL; in the assay on S. pyogenes (Day 1, 37° C.) it was 0.5 µg/mL; in the assay on S. pyogenes (Day 2, 37° C.), 1 µg/mL; in the assay on P. mirabilis (setting [1]), 50 µg/mL; in the assay on P. mirabilis (setting [2]) it was 50 µg/mL. Besides, the MIC with C. tropicalis (setting [3]) and with C. tropicalis (setting [4]) was 5 µg/mL each time.

As for `CCCCCCCCCCCCCCn1ccc[n+]1C` [Example 3-G, 2-methyl-1-tetradecyl-pyrazolium methosulfate], the MIC in the assay with S. aureus (Day 1, 37° C.) stood at 0.5 µg/mL; against S. aureus (Day 2, 37° C.), 0.5 µg/mL; in the assay on S. pyogenes (Day 1, 37° C.), 0.5 µg/mL; against S. pyogenes (Day 2, 37° C.), 0.5 µg/mL; in the assay on P. mirabilis (setting [1]) it was 50 µg/mL; in the assay on P. mirabilis (setting [2]), 50 µg/mL. Further, the MIC in the assay with C. tropicalis (setting [3]) and with C. tropicalis (setting [4]) was 0.5 µg/mL in each case.

For `CCCCCCCCCCCCCCCCn1ccc[n+]1C` [Example 3-D, 1-hexadecyl-2-methyl-pyrazolium methosulfate], the MIC was 0.5 µg/mL in the assay on S. aureus (Day 1, 37° C.); 0.5 µg/mL in the assay on S. aureus (Day 2, 37° C.); 0.5 µg/mL in the assay with S. pyogenes (Day 1, 37° C.); 0.5 µg/mL in the assay with S. pyogenes (Day 2, 37° C.); 10 µg/mL in the assay with P. mirabilis (setting [1]); 50 µg/mL with P. mirabilis (setting [2]). The MIC in the assay on C. tropicalis (setting [3]) and with C. tropicalis (setting [4]) was 0.5 µg/mL each time.

As for `CCCCCCCCCCCCn1c(C)cc(C)[n+]1C` [Example 1, 1-dodecyl-2,3,5-trimethyl-pyrazolium methosulfate], the MIC in the assay with S. aureus (Day 1, 37° C.) stood at 5 µg/mL; against S. aureus (Day 2, 37° C.), 5 µg/mL; in the assay on S. pyogenes (Day 1, 37° C.), 1 µg/mL; in the assay with S. pyogenes (Day 2, 37° C.), 0.5 µg/mL; in the assay on P. mirabilis (setting [1]), 100 µg/mL; in the assay on P. mirabilis (setting [2]) it was 100 µg/mL. The MIC in the assay on C. tropicalis (setting [3]) and in the assay on C. tropicalis (setting [4]) was 5 µg/mL each time.

Consider `CCCCCCCCCCCC[n+]1c(C)cc(C)n1Cc1ccc(Cl)cc1.[Br-]` [Example 6-E, 2-(p-chlorobenzyl)-3,5-dimethyl-1-dodecyl-pyrazolium bromide], for which the MIC in the assay with S. aureus (Day 1, 37° C.) worked out at 0.5 µg/mL; against S. aureus (Day 2, 37° C.) it was 0.5 µg/mL; in the assay on S. pyogenes (Day 1, 37° C.) it was 0.5 µg/mL; in the assay with S. pyogenes (Day 2, 37° C.), 0.5 µg/mL; with P. mirabilis (setting [1]) it was 50 µg/mL; in the assay with P. mirabilis (setting [2]), 50 µg/mL. The MIC with C. tropicalis (setting [3]) amounted to 5 µg/mL; with C. tropicalis (setting [4]) it was 1 µg/mL.
